The record followed here is ChEMBL document CHEMBL3046369, “Synthesis of novel optically pure -amino acid functionalised-7-trifluoromethyl substituted quinolone derivatives and their antibacterial activity” (2013).

What all share (format): functional
Test [1] relates to Bacillus subtilis. The experiment in a line: Antibacterial activity against Bacillus subtilis assessed as growth inhibition by microtitration method.
In test [2] the test system is Pseudomonas aeruginosa. The experiment in a line: Antibacterial activity against Pseudomonas aeruginosa assessed as growth inhibition by microtitration method.
In test [3] the test system is Escherichia coli. The experiment in a line: Antibacterial activity against Escherichia coli assessed as growth inhibition by microtitration method.
In test [4] the test system is Staphylococcus aureus. The experiment in a line: Antibacterial activity against Staphylococcus aureus assessed as growth inhibition by microtitration method.
In test [5] the test system is Staphylococcus epidermidis. Description: Antibacterial activity against Staphylococcus epidermidis assessed as growth inhibition by microtitration method.
Test [6] deals with Klebsiella aerogenes. The experiment in a line: Antibacterial activity against Enterobacter aerogenes assessed as growth inhibition by microtitration method.

With `CCOC(=O)[C@@H](Cc1ccccc1)NC(=O)c1cn(CC)c2cc(C(F)(F)F)ccc2c1=O`, the MIC in test [1], in test [2], in test [3], in test [4], in test [5] and in test [6] was 25 µg/mL each time.

Regarding `CCn1cc(C(=O)N[C@@H](CC(C)C)C(=O)O)c(=O)c2ccc(C(F)(F)F)cc21`, the MIC in test [1] was 25 µg/mL; in test [2] it was 6.25 µg/mL; in test [3] it was 12.5 µg/mL; in test [4], 25 µg/mL; in test [5], 6.25 µg/mL; in test [6], 12.5 µg/mL.

For the compound `CCn1cc(C(=O)N[C@@H](Cc2ccccc2)C(=O)O)c(=O)c2ccc(C(F)(F)F)cc21`, the minimal inhibitory concentration (MIC) is 50 µg/mL in test [1]; 3.12 µg/mL in test [2]; 12.5 µg/mL in test [3]; 12.5 µg/mL in test [4]; 3.12 µg/mL in test [5]; 6.25 µg/mL in test [6].

Take `CCn1cc(C(=O)N[C@H](C)C(=O)O)c(=O)c2ccc(C(F)(F)F)cc21`: the MIC in test [1] was determined as 50 µg/mL; in test [2], 12.5 µg/mL; in test [3] it was 12.5 µg/mL; in test [4], 25 µg/mL; in test [5], 25 µg/mL; in test [6], 25 µg/mL.

As for `CCn1cc(C(=O)N[C@H](Cc2ccccc2)C(=O)O)c(=O)c2ccc(C(F)(F)F)cc21`, the MIC in test [1] was found to be 25 µg/mL; in test [2] it was 25 µg/mL; in test [3] it was 25 µg/mL; in test [4], 25 µg/mL; in test [5], 25 µg/mL; in test [6] it was 12.5 µg/mL.

As to `CCn1cc(C(=O)N2CCC[C@H]2C(=O)O)c(=O)c2ccc(C(F)(F)F)cc21`, the MIC in test [1] is 25 µg/mL; in test [2], 6.25 µg/mL; in test [3], 12.5 µg/mL; in test [4], 25 µg/mL; in test [5], 6.25 µg/mL; in test [6] it was 6.25 µg/mL.

On to `CCOC(=O)[C@@H]1CCCN1C(=O)c1cn(CC)c2cc(C(F)(F)F)ccc2c1=O`, for which the MIC was found to be 50 µg/mL in test [1]; 6.25 µg/mL in test [2]; 25 µg/mL in test [3]; 25 µg/mL in test [4]; 25 µg/mL in test [5]; 12.5 µg/mL in test [6].

As for `CCn1cc(C(=O)N[C@@H](C)C(=O)O)c(=O)c2ccc(C(F)(F)F)cc21`, the MIC stood at 50 µg/mL in test [1]; 25 µg/mL in test [2]; 12.5 µg/mL in test [3]; 12.5 µg/mL in test [4]; 6.25 µg/mL in test [5]; 12.5 µg/mL in test [6].

Turning to `CCn1cc(C(=O)N[C@H](C(=O)O)C(C)C)c(=O)c2ccc(C(F)(F)F)cc21`, the MIC turned out to be 50 µg/mL in test [1]; 6.25 µg/mL in test [2]; 12.5 µg/mL in test [3]; 12.5 µg/mL in test [4]; 6.25 µg/mL in test [5]; 3.12 µg/mL in test [6].

For the compound `CC[C@@H](C)[C@H](NC(=O)c1cn(CC)c2cc(C(F)(F)F)ccc2c1=O)C(=O)O`, the minimal inhibitory concentration (MIC) in test [1] worked out at 25 µg/mL; in test [2], 6.25 µg/mL; in test [3] it was 12.5 µg/mL; in test [4] it was 25 µg/mL; in test [5], 6.25 µg/mL; in test [6] it was 12.5 µg/mL.

As to `C[C@H](NC(=O)c1cnc2cc(C(F)(F)F)ccc2c1O)C(=O)O`, the MIC came to 50 µg/mL in test [1]; 25 µg/mL in test [2]; 25 µg/mL in test [3]; 25 µg/mL in test [4]; 25 µg/mL in test [5]; 50 µg/mL in test [6].

As to `CC(C)[C@H](NC(=O)c1cnc2cc(C(F)(F)F)ccc2c1O)C(=O)O`, the minimal inhibitory concentration (MIC) in test [1] was determined as 50 µg/mL; in test [2] it was 25 µg/mL; in test [3] it was 25 µg/mL; in test [4], 25 µg/mL; in test [5], 25 µg/mL; in test [6], 25 µg/mL.

With `CC[C@@H](C)[C@H](NC(=O)c1cnc2cc(C(F)(F)F)ccc2c1O)C(=O)O`, the MIC in test [1] was 50 µg/mL; in test [2], 25 µg/mL; in test [3], 25 µg/mL; in test [4], 25 µg/mL; in test [5] it was 25 µg/mL; in test [6] it was 25 µg/mL.

With `CC(C)C[C@H](NC(=O)c1cnc2cc(C(F)(F)F)ccc2c1O)C(=O)O`, the MIC in test [1] amounted to 50 µg/mL; in test [2] it was 25 µg/mL; in test [3] it was 25 µg/mL; in test [4], 25 µg/mL; in test [5] it was 25 µg/mL; in test [6], 25 µg/mL.

In the case of `O=C(N[C@@H](Cc1ccccc1)C(=O)O)c1cnc2cc(C(F)(F)F)ccc2c1O`, the MIC in test [1] was found to be 50 µg/mL; in test [2] it was 25 µg/mL; in test [3] it was 25 µg/mL; in test [4] it was 12.5 µg/mL; in test [5], 25 µg/mL; in test [6], 25 µg/mL.

As to `C[C@@H](NC(=O)c1cnc2cc(C(F)(F)F)ccc2c1O)C(=O)O`, the MIC was found to be 50 µg/mL in test [1]; 6.12 µg/mL in test [2]; 25 µg/mL in test [3]; 25 µg/mL in test [4]; 12.5 µg/mL in test [5]; 25 µg/mL in test [6].

On to `O=C(N[C@H](Cc1ccccc1)C(=O)O)c1cnc2cc(C(F)(F)F)ccc2c1O`, for which the minimal inhibitory concentration (MIC) in test [1] worked out at 50 µg/mL; in test [2] it was 6.12 µg/mL; in test [3], 25 µg/mL; in test [4] it was 25 µg/mL; in test [5], 25 µg/mL; in test [6] it was 12.5 µg/mL.

Turning to `O=C(O)[C@@H]1CCCN1C(=O)c1cnc2cc(C(F)(F)F)ccc2c1O`, the minimum inhibitory concentration (MIC) in test [1] was found to be 50 µg/mL; in test [2], 25 µg/mL; in test [3], 25 µg/mL; in test [4], 25 µg/mL; in test [5], 50 µg/mL; in test [6], 25 µg/mL.

As for `CCOC(=O)[C@H](C)NC(=O)c1cn(CC)c2cc(C(F)(F)F)ccc2c1=O`, the MIC in test [1] came to 25 µg/mL; in test [2], 25 µg/mL; in test [3], 25 µg/mL; in test [4], 50 µg/mL; in test [5], 6.25 µg/mL; in test [6] it was 12.5 µg/mL.

As to `CCOC(=O)[C@@H](NC(=O)c1cn(CC)c2cc(C(F)(F)F)ccc2c1=O)C(C)C`, the MIC in test [1] was determined as 25 µg/mL; in test [2], 25 µg/mL; in test [3] it was 25 µg/mL; in test [4], 25 µg/mL; in test [5], 25 µg/mL; in test [6], 12.5 µg/mL.

In the case of `CCOC(=O)[C@@H](NC(=O)c1cn(CC)c2cc(C(F)(F)F)ccc2c1=O)[C@H](C)CC`, the MIC was found to be 50 µg/mL in test [1]; 25 µg/mL in test [2]; 25 µg/mL in test [3]; 25 µg/mL in test [4]; 25 µg/mL in test [5]; 12.5 µg/mL in test [6].

As for `CCOC(=O)[C@H](CC(C)C)NC(=O)c1cn(CC)c2cc(C(F)(F)F)ccc2c1=O`, the MIC in test [1] was found to be 50 µg/mL; in test [2], 6.25 µg/mL; in test [3] it was 25 µg/mL; in test [4], 25 µg/mL; in test [5] it was 25 µg/mL; in test [6], 12.5 µg/mL.

In the case of `CCOC(=O)[C@H](Cc1ccccc1)NC(=O)c1cn(CC)c2cc(C(F)(F)F)ccc2c1=O`, the minimum inhibitory concentration (MIC) in test [1] came out at 50 µg/mL; in test [2], 6.25 µg/mL; in test [3] it was 12.5 µg/mL; in test [4] it was 25 µg/mL; in test [5], 6.25 µg/mL; in test [6], 6.25 µg/mL.

In the case of `CCOC(=O)[C@@H](C)NC(=O)c1cn(CC)c2cc(C(F)(F)F)ccc2c1=O`, the MIC came out at 25 µg/mL in test [1]; 6.12 µg/mL in test [2]; 25 µg/mL in test [3]; 25 µg/mL in test [4]; 25 µg/mL in test [5]; 12.5 µg/mL in test [6].

On to `O=C(O)c1cn(C2CC2)c2cc(N3CCNCC3)c(F)cc2c1=O` [CIPROFLOXACIN], for which the minimal inhibitory concentration (MIC) in test [1] came out at 0.048 µg/mL; in test [2], 0.012 µg/mL; in test [4], 0.048 µg/mL; in test [5], 0.012 µg/mL; in test [6] it was 0.012 µg/mL.
